Test results published in paper PMC5750217 (Nature Communications, 2018).

Tests used:
[1] = target: T1, ASCT2 (Homo sapiens, UniProt Q15758); assay: Radiolabelled uptake in oocytes expressing ASCT2; type: cell-based; conditions: 10 µM radiolabelled substrate, 10 min, room temperature
T1 sequence (Q15758 1-541): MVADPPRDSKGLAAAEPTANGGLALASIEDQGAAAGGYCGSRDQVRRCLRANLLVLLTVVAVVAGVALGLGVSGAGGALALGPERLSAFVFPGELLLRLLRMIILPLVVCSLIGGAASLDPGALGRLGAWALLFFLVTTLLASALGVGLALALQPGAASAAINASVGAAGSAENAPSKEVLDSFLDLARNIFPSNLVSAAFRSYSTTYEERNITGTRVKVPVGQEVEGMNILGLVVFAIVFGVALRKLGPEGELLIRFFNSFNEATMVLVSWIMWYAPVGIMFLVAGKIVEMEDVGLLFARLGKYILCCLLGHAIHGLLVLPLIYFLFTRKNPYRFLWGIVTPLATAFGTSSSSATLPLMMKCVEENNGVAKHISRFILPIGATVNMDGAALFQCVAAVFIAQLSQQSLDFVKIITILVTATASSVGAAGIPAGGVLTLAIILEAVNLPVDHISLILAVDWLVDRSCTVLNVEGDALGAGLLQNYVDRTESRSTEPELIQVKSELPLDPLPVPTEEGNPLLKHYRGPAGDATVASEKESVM
Method: Uptake of L-[^3H]amino acids (PerkinElmer Life Sciences) was measured in oocytes expressing wild-type and mutant ASCT1, and uninjected oocytes. Five oocytes were incubated in Cl^−-containing buffer with 10 µM L-[^3H]amino acids at room temperature. After 10 min, uptake was terminated by three rapid washes in ice-cold Cl^−-containing buffer followed by lysis in 50 mM NaOH and 1% SDS. L-[^3H]amino acids were measured by scintillation counting using a Trilux beta counter (PerkinElmer Life Sciences).
Supplementary Figure 6. GltPh‐R397C, ASCT1 and ASCT2 are functional cysteine transporters. (a) […]
7.5) containing 1 µM of valinomycin and the 10µM 35S‐cysteine. […]
(1 picture or pasted object on this page, not shown here)

[2] = target: T2, GltPh-R397C (Pyrococcus horikoshii, UniProt O59010, R397C); assay: biochemical; type: binding; conditions: for Apparent number of Na+ ions coupled to binding (n): GltPh-R397C, global fit of isotherms at 10–100 mM Na+, 25 °C
T2 construct: hexa-His (N, cleaved yes); made in house; host or cells: Escherichia coli Top10 (pBAD)
Method: Fluorescence-based binding assays were performed by titrating purified protein (50 μg per ml) in 20 mM HEPES/Tris, pH 7.4, 200 mM choline chloride, 0.4 mM n-dodecyl^−β-D-maltopyranoside, 200 nM styryl fluorescent dye RH421 (Invitrogen, Inc., Grand Island, NY) with NaCl, L-ser, L-cys or benzylcysteine at 25 °C[51]. The RH421 dye was excited at 532 nm, and the fluorescence was collected at 628 nm using a QuantaMaster (Photon International Technology, Inc., Edison, NJ). Fluorescence emissions were measured after at least 10 min equilibration to ensure a stabilised signal. The data were analysed using GraphPad Prism version 6.0 for Mac (GraphPad Software, La Jolla California USA). Fractional fluorescence changes were normalised to maximal fluorescence changes, then plotted as a function of ligand concentration and fitted to the Hill equation. All the experiments were performed at least in triplicate.
Analysis of ligand binding data. The voltage sensitive amphipathic dye RH421 reports on Na+ binding to purified GltPh protein in detergent3. RH421 was used to follow Na+ binding to GltPh‐R397C protein either alone or in reactions coupled to binding of amino acids. […]
Coupled ions and amino acid binding was probed by titrating amino acids to the GltPh‐R397C protein in the presence of 10 – 100 mM Na+ ions. The obtained isotherms were analyzed to estimate an apparent number of Na+ ions coupled to binding of the amino acids.
Raw data were first normalized by the initial fluorescence of RH421 and plotted as fraction of fluorescence change (Supplementary […]
total amount of dye and detergent in the assay buffer.
To take into account significant amino acid‐independent Na+ binding, the sets of binding isotherms obtained at variable Na+ concentrations were fitted globally to a simplified binding equation: […]
KD,a is the combined dissociation constant for coupled Na+ and ligand binding and n is the apparent number of coupled ions. Fraction of the protein bound to either Na+ ions alone or to the ions and the […]
Fraction of the protein already bound to Na+ ions before ligand addition is: […]
Fractional fluorescence change Y is fitted to an equation: […]
where Y0 and ∆Y are, respectively, baseline and the signal difference between fully bound and apo […]
KD,a and n were fitted globally for each ligand. Y0 and ∆Y were adjusted for each isotherm independently. […]
individual isotherm to a standard Hill equation, plotted the apparent dissociation constants as functions of Na+ concentrations and compared the values to those predicted using the parameters from the global fits (Supplementary Figure 8).

T2 sequence (O59010 whole entry R397C): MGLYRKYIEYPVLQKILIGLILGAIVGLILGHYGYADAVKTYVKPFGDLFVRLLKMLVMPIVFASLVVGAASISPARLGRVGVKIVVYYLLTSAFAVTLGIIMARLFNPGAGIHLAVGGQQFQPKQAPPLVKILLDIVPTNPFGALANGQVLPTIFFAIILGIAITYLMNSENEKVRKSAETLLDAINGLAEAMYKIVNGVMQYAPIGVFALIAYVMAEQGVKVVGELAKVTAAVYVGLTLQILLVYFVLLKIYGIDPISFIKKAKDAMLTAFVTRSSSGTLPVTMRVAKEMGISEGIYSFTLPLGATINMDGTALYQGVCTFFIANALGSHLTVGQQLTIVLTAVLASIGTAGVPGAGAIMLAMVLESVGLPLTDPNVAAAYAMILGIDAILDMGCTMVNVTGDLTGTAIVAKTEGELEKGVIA

Row | Compound | Radiolabelled substrate uptake into oocytes (in words) [1] | Kd [2] | Apparent number of Na+ ions coupled to binding (n) [2]
1 | N[C@@H](CS)C(=O)O [L-cysteine] | robust L-[^35S]cysteine uptake | 31 ± 3 µM | 1.5 ± 0.04
2 | NC(=O)CC[C@H](N)C(=O)O [L-glutamine] | robust L-[^3H]glutamine uptake | 1800 ± 400 µM | 1.1 ± 0.04
3 | N[C@@H](CO)C(=O)O [L-serine] | observe L-[^3H]serine uptake | 9 ± 1 µM | 1.7 ± 0.04
